According to US12208088B2 (Genentech, Inc., priority 2018, dated 2025):

Target: HPK1 (Homo sapiens (Human), UniProt Q92918)
Assay: HPK1 Lantha binding assay ("Lanth")
Settings: binding assays; Morrison Ki fit
Procedure: Example B2: HPK1 Lantha Binding Assay (“Lanth”)
Procedure: I. Compound Dilution:
The compounds to be tested were diluted by preparing 12.5 uL/well of 5 mM compound (100×) in columns 2 and 13 and 10 ul/well of DMSO in columns 3-12, 14-23, and wells A1-H1 and I24-P24 of the compound plate using a Bravo liquid handling platform. For the reference compound, the top concentration was 1 mM. To the plate was added 10 ul 2 mM staurosporine in wells J1-P1 and A24-H24. A 11 point 5-fold compound serial dilution was performed using the Bravo liquid handling platform. From the plate were transferred 2.5 ul of the solutions from column 2 and column 13 to the 10 ul of DMSO in columns 3 and 14 & so on. The compound plate was centrifuged at 2500 rpm for 1 min. From the compound plate was transferred 80 nl of the compounds into an assay plate using the Echo liquid handler system. One compound plate makes two assay plates. Each assay plate is sealed and stored in an N2 cabinet.
The following assay concentrations and times were used: 2 nM HPK1, 2 nM Eu-Anti-GST Ab, and 15 nM Tracer222, with 60 min incubation time.
III. HPK Lantha Binding Assay:
For the binding assay, 4 ul 2×HPK1 and Eu-anti-GST antibody were added to each well of the assay plate using a Multidrop reagent dispenser. The solutions were incubated in a 23 C incubator for 1 h. To each well of the assay plate was added 4 ul 2× Tracer-222 using a Multidrop reagent dispenser. The solutions were again incubated in a 23 C incubator for 1 h. The results of the assay were read using an Envision plate reader with the following parameters: TR_FRET, 340 ex/615 and 665em; 100 usec Delay; and 200 usec integration.
Compound Ki was analyzed using Morrison ki fit model in XL-fit • a. fit=(1−((((E+x)+(Ki*(1+(S/Kd))))−(((((E+x)+(Ki*(1+(S/Kd))))^2)−((4*E)*x))^0.5))/(2*E))) • res=(y−fit) • b. Parameters: • E=enzyme concentration • S=Tracer222 concentration, Kd=Tracer222 Kd • All measurements reported using the same units (uM)
Exemplary compounds were tested in the binding assays.

Chain of HPK1 (Q92918 1-346 limits assumed): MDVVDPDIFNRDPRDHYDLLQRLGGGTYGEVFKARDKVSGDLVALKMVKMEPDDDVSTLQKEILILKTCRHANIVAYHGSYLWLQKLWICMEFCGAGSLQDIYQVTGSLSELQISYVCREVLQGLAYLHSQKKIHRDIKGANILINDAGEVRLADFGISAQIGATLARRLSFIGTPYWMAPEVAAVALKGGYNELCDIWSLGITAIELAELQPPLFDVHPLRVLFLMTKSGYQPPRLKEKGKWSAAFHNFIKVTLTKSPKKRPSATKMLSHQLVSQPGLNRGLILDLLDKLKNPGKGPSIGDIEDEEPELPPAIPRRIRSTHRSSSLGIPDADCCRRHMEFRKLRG

| Ki [nM] | Compound |
| --- | --- |
| 32.2 | Cc1ccn([C@H]2CC[C@@]3(CNc4ncc(-c5ccc(N)c(C(=O)N(C)C)c5F)c(Cl)c43)C2)n1 (relative stereo) [Compound 159a, 6-Amino-3-((1R,3S)-4′-chloro-3-(3-methyl-1H-pyrazol-1-yl)-1′,2′-dihydrospiro[cyclopentane-1,3′-pyrrolo[2,3-b]pyridin]-5′-yl)-2-fluoro-N,N-dimethylbenzamide] |
| 51 | Cc1cc(C#N)n([C@H]2CC[C@@]3(CNc4ncc(-c5ccc(N)c(C(=O)N(C)C)c5F)c(Cl)c43)C2)n1 (relative stereo) [Compound 161a] |
| 69.3 | Cc1cc(C)n([C@H]2CC[C@@]3(CNc4ncc(-c5ccc(N)c(C(=O)N(C)C)c5F)c(Cl)c43)C2)n1 (relative stereo) [Compound 163a, 6-Amino-3-((1R,3S)-4′-chloro-3-(3,5-dimethyl-1H-pyrazol-1-yl)-1′,2′-dihydrospiro[cyclopentane-1,3′-pyrrolo[2,3-b]pyridin]-5′-yl)-2-fluoro-N,N-dimethylbenzamide] |
| 6.65 | CN(C)C(=O)c1c(N)ccc(-c2cnc3c(c2Cl)[C@]2(CC[C@H](n4cc(C(F)(F)F)cn4)C2)CN3)c1F (relative stereo) [Compound 164a, 6-Amino-3-((1R,3S)-4′-chloro-3-(4-(trifluoromethyl)-1H-pyrazol-1-yl)-1′,2′-dihydrospiro[cyclopentane-1,3′-pyrrolo[2,3-b]pyridin]-5′-yl)-2-fluoro-N,N-dimethylbenzamide] |
| 6.41 | COc1c(-c2ccc(N)c(C(=O)N(C)C)c2F)cnc2c1[C@@]1(CN2)C[C@@H]1C (relative stereo) [Compound 165a, 6-Amino-2-fluoro-3-((1R,2S)-4′-methoxy-2-methyl-1′,2′-dihydrospiro[cyclopropane-1,3′-pyrrolo[2,3-b]pyridin]-5′-yl)-N,N-dimethylbenzamide] |
| 163 | Cc1nccn1[C@H]1CC[C@@]2(CNc3ncc(-c4ccc(N)c(C(=O)N(C)C)c4F)c(Cl)c32)C1 (relative stereo) [Compound 167a, 6-Amino-3-((1R,3S)-4′-chloro-3-(2-methyl-1H-imidazol-1-yl)-1′,2′-dihydrospiro[cyclopentane-1,3′-pyrrolo[2,3-b]pyridin]-5′-yl)-2-fluoro-N,N-dimethylbenzamide] |
| 5.54 | CCc1cnn([C@H]2CC[C@@]3(CNc4ncc(-c5ccc(N)c(C(=O)N(C)C)c5F)c(Cl)c43)C2)c1 (relative stereo) [Compound 170a, 6-Amino-3-((1R,3S)-4′-chloro-3-(4-ethyl-1H-pyrazol-1-yl)-1′,2′-dihydrospiro[cyclopentane-1,3′-pyrrolo[2,3-b]pyridin]-5′-yl)-2-fluoro-N,N-dimethylbenzamide] |
| 6.58 | CN(C)C(=O)c1c(N)ccc(-c2cnc3c(c2Cl)[C@]2(CC[C@H](n4cc(Cl)cn4)C2)CN3)c1F (relative stereo) [Compound 171a, 6-Amino-3-((1R,3S)-4′-chloro-3-(4-chloro-1H-pyrazol-1-yl)-1′,2′-dihydrospiro[cyclopentane-1,3′-pyrrolo[2,3-b]pyridin]-5′-yl)-2-fluoro-N,N-dimethylbenzamide] |
| 6.75 | CN(C)C(=O)c1c(N)ccc(-c2cnc3c(c2Cl)[C@]2(CC[C@H](Oc4ccccn4)C2)CN3)c1F (relative stereo) [Compound 173a, 6-Amino-3-((1R,3S)-4′-chloro-3-(pyridin-2-yloxy)-1′,2′-dihydrospiro[cyclopentane-1,3′-pyrrolo[2,3-b]pyridin]-5′-yl)-2-fluoro-N,N-dimethylbenzamide] |
| 14.7 | Cc1cn([C@H]2CC[C@@]3(CNc4ncc(-c5ccc(N)c(C(=O)N(C)C)c5F)c(Cl)c43)C2)nc1N (relative stereo) [Compound 177a, 6-Amino-3-((1R,3S)-3-(3-amino-4-methyl-1H-pyrazol-1-yl)-4′-chloro-1′,2′-dihydrospiro[cyclopentane-1,3′-pyrrolo[2,3-b]pyridin]-5′-yl)-2-fluoro-N,N-dimethylbenzamide] |
| 15.9 | Cc1cnn([C@H]2CC[C@@]3(CNc4ncc(-c5ccc(N)c(C(=O)N(C)C)c5F)c(Cl)c43)C2)c1N (relative stereo) [Compound 178a, 6-Amino-3-((1R,3S)-3-(5-amino-4-methyl-1H-pyrazol-1-yl)-4′-chloro-1′,2′-dihydrospiro[cyclopentane-1,3′-pyrrolo[2,3-b]pyridin]-5′-yl)-2-fluoro-N,N-dimethylbenzamide] |
| 46.1 | CN(C)C(=O)c1c(N)ccc(-c2cnc3c(c2Cl)[C@]2(CC[C@H](n4cc(C(N)=O)cn4)C2)CN3)c1F (relative stereo) [Compound 180a, 1-((1R,3S)-5′-(4-Amino-3-(dimethylcarbamoyl)-2-fluorophenyl)-4′-chloro-1′,2′-dihydrospiro[cyclopentane-1,3′-pyrrolo[2,3-b]pyridin]-3-yl)-1H-pyrazole-4-carboxamide] |
| 97.6 | CN(C)C(=O)c1c(N)ccc(-c2cnc3c(c2Cl)[C@]2(CC[C@H](n4ccccc4=O)C2)CN3)c1F (relative stereo) [Compound 196a, 6-Amino-3-((1R,3S)-4′-chloro-3-(2-oxopyridin-1(2B)-yl)-1′,2′-dihydrospiro[cyclopentane-1,3′-pyrrolo[2,3-b]pyridin]-5′-yl)-2-fluoro-N,N-dimethylbenzamide] |
| 15.2 | CN(C)C(=O)c1c(N)ccc(-c2cnc3c(c2Cl)[C@@]2(CN3)C[C@@H]2c2ccncc2)c1F (relative stereo) [Compound 198a, 6-Amino-3-((1R,2R)-4′-chloro-2-(pyridin-4-yl)-1′,2′-dihydrospiro[cyclopropane-1,3′-pyrrolo[2,3-b]pyridin]-5′-yl)-2-fluoro-N,N-dimethylbenzamide] |
| 3.58 | CN(C)C(=O)c1c(N)ccc(-c2cnc3c(c2Cl)[C@@]2(CN3)C[C@@H]2c2ccccc2)c1F (relative stereo) [Compound 201a, 6-Amino-3-((1R,2R)-4′-chloro-2-phenyl-1′,2′-dihydrospiro[cyclopropane-1,3′-pyrrolo[2,3-b]pyridin]-5′-yl)-2-fluoro-N,N-dimethylbenzamide] |
| 6.1 | CN(C)C(=O)c1c(N)ccc(-c2cnc3c(c2Cl)[C@]2(CC[C@H](CO)C2)CN3)c1F (relative stereo) [Compound 259a, 6-Amino-3-((1R,3S)-4′-chloro-3-(hydroxymethyl)-1′,2′-dihydrospiro[cyclopentane-1,3′-pyrrolo[2,3-b]pyridin]-5′-yl)-2-fluoro-N,N-dimethylbenzamide] |
| 30.8 | CN(CCN1CCOCC1)C(=O)c1c(N)ccc(-c2cnc3c(c2Cl)[C@]2(CC[C@](C)(C#N)C2)CN3)c1F (relative stereo) [Compound 272a, 6-Amino-3-((1R,3S)-4′-chloro-3-cyano-3-methyl-1′,2′-dihydrospiro[cyclopentane-1,3′-pyrrolo[2,3-b]pyridin]-5′-yl)-2-fluoro-N-methyl-N-(2-morpholinoethyl)benzamide] |
| 41 | CN(C)CCCN(C)C(=O)c1c(N)ccc(-c2cnc3c(c2Cl)[C@]2(CC[C@](C)(C#N)C2)CN3)c1F (relative stereo) [Compound 275a, 6-Amino-3-((1R,3S)-4′-chloro-3-cyano-3-methyl-1′,2′-dihydrospiro[cyclopentane-1,3′-pyrrolo[2,3-b]pyridin]-5′-yl)-N-(3-(dimethylamino)propyl)-2-fluoro-N-methylbenzamide] |
